Measurements reported in ChEMBL document CHEMBL1135247, “Benzimidazoles and isosteric compounds as potent and selective factor Xa inhibitors” (Bioorg Med Chem Lett, 2002).

Assays:
Coagulation factor X [1] = biological target: T1, Coagulation factor X (Homo sapiens, UniProt P00742); test: Inhibition of Coagulation factor Xa
[2] = biological target: Vitamin K-dependent protein C (Homo sapiens, UniProt P04070); test: Tested for inhibitory activity against Activated protein C
Prothrombin = Prothrombin (Homo sapiens, UniProt P00734); test: Tested for inhibitory activity against thrombin
Serine protease 1 = Serine protease 1 (Homo sapiens, UniProt P07477); test: Tested for inhibitory activity against trypsin
Plasminogen = Plasminogen (Homo sapiens, UniProt P00747); test: Tested for inhibitory activity against plasmin
[3] = biological target: Tissue-type plasminogen activator (Homo sapiens, UniProt P00750); test: Tested for inhibitory activity against Tissue plasminogen activator
Coagulation factor X [4] = biological target: T1, Coagulation factor X; test: Tested for inhibitory against Coagulation factor Xa at a concentration of 3.9 uM
Coagulation factor X [5] = biological target: T1, Coagulation factor X; test: Tested for inhibitory activity against Coagulation factor Xa

Plasminogen, sequence (P00747 97-580 limits assumed): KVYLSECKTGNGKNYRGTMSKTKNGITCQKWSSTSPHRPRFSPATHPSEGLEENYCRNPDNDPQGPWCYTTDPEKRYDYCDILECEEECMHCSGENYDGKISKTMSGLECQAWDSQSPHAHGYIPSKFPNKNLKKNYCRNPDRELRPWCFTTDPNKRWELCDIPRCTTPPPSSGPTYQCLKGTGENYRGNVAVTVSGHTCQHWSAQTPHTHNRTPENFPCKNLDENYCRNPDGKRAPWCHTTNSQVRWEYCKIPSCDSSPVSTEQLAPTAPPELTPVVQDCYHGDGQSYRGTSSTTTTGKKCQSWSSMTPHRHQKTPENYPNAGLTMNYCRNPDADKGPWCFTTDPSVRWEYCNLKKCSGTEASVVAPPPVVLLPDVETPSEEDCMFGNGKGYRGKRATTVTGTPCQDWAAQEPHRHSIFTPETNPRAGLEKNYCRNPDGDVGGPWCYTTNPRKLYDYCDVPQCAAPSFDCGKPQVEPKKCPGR
Plasminogen, sequence (P00747 581-810 limits assumed): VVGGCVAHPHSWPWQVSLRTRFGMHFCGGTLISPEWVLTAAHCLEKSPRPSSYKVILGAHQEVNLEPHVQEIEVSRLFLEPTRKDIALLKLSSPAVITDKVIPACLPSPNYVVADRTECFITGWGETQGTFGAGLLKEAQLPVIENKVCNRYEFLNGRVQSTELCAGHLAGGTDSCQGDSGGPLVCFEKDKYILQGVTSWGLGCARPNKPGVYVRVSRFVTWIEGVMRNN
T1 sequence (P00742 41-179 limits assumed): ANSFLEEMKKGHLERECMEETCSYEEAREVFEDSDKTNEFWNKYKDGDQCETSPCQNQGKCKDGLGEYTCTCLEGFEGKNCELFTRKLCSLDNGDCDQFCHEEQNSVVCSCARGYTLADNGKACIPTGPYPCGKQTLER
T1 sequence (P00742 235-488 limits assumed): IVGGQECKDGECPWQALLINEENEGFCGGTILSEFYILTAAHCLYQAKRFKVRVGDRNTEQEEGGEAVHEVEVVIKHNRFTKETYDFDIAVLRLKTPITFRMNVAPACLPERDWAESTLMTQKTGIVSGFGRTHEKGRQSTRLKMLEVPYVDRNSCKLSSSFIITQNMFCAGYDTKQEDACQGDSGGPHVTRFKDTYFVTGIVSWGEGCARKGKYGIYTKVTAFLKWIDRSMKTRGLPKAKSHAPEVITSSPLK
Tissue-type plasminogen activator, sequence (P00750 whole entry): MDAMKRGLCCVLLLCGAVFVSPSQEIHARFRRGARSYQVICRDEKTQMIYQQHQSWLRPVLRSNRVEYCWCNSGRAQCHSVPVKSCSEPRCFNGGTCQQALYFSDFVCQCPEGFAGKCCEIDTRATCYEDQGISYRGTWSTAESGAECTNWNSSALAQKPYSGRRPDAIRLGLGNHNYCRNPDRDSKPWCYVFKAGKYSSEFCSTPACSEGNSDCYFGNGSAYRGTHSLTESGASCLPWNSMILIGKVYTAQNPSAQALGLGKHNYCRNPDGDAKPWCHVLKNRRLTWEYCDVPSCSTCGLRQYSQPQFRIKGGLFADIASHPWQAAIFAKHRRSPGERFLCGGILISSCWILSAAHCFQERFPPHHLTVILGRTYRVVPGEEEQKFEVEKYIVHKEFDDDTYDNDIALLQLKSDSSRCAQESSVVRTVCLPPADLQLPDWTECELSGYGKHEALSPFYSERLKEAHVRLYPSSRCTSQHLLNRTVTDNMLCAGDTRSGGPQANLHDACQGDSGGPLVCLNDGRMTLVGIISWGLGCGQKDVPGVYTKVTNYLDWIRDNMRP
Serine protease 1, sequence (P07477 whole entry): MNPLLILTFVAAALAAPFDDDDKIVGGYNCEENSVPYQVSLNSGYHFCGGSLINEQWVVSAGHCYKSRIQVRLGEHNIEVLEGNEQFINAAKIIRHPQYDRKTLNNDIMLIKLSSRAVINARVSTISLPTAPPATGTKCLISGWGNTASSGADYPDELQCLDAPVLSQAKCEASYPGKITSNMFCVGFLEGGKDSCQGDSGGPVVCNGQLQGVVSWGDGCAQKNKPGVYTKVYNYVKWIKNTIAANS
Vitamin K-dependent protein C, sequence (P04070 43-197 limits assumed): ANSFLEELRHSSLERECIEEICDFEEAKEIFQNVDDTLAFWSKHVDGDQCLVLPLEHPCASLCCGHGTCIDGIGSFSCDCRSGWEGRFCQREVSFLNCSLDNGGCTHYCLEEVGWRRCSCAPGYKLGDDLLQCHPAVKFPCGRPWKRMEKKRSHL
Vitamin K-dependent protein C, sequence (P04070 212-461 limits assumed): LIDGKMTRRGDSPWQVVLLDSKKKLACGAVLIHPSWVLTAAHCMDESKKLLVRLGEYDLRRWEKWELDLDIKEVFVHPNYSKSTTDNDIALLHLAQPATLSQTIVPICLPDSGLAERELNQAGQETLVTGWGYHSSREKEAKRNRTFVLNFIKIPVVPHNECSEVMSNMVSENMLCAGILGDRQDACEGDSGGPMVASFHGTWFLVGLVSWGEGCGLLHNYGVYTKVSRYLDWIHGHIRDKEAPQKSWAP

| SMILES | Ki (Coagulation factor X [1]) [µM] | other results |
| --- | --- | --- |
| N=C(N)c1ccc(CN2CCN(Cc3nc4ccc(Cl)cc4[nH]3)CC2=O)cc1 | 0.04 | – |
| Nc1ncnc2cc(CN3CCN(Cc4nc5ccc(Br)cc5[nH]4)CC3=O)ccc12 | 0.017 | – |
| Nc1ncnc2cc(CN3CCN(Cc4nc5cc(OC(F)(F)F)ccc5[nH]4)CC3=O)ccc12 | > 1.2 | – |
| Nc1ncnc2cc(CN3CCN(Cc4cc5cc(Cl)ccc5[nH]4)CC3=O)ccc12 | 0.024 | Ki [2]: > 18 µM; Ki (Prothrombin): > 4 µM; Ki (Serine protease 1): > 2.9 µM; Ki (Plasminogen): > 7.3 µM; Ki [3]: > 8.7 µM |
| Nc1ncnc2cc(CN3CCN(Cc4nc5ccc(C(F)(F)F)cc5[nH]4)CC3=O)ccc12 | > 1.2 | – |
| N=C(N)c1cccc(CN2CCN(Cc3nc4cc(Cl)ccc4[nH]3)CC2=O)c1 | – | inhibition (Coagulation factor X [4]): 42% |
| Nc1ncnc2cc(CN3CCN(Cc4cc5ccc(Cl)cc5[nH]4)CC3=O)ccc12 | 0.39 | – |
| Nc1ncnc2cc(CN3CCN(Cc4nc5cc(Cl)c(Cl)cc5[nH]4)CC3=O)ccc12 | > 1.2 | – |
| Nc1ncnc2cc(CN3CCN(S(=O)(=O)c4nc5ccc(Cl)cc5[nH]4)CC3=O)ccc12 | 0.003 | Ki [2]: > 18 µM; Ki (Prothrombin): > 4 µM; Ki (Serine protease 1): > 2.9 µM; Ki (Plasminogen): > 7.3 µM; Ki [3]: > 8.7 µM |
| N=C(N)c1cccc(CN2CCN(Cc3nc4ccc(Cl)cc4[nH]3)CC2=O)c1 | > 1.2 | – |
| Cc1ccc2nc(CN3CCN(Cc4ccc5c(N)ncnc5c4)C(=O)C3)[nH]c2c1 | 0.12 | – |
| Nc1ncnc2cc(CN3CCN(Cc4nc5cc(Cl)ccc5[nH]4)CC3)ccc12 | > 1.2 | – |

Second part, led by results:

| Ki (Coagulation factor X [1]) [µM] | SMILES | other results |
| --- | --- | --- |
| 1.2 | Nc1ncnc2cc(CN3CCN(Cc4nc5ccccc5[nH]4)CC3=O)ccc12 | – |
| 1.2 | Nc1ncnc2cc(CN3CCN(Cc4nc5cc(Cl)ccc5o4)CC3=O)ccc12 | – |
| 0.29 | Cn1c(CN2CCN(Cc3ccc4c(N)ncnc4c3)C(=O)C2)nc2ccc(Cl)cc21 | – |
| 0.01 | Nc1ncnc2cc(CN3CCN(Cc4nc5ccc(Cl)cc5[nH]4)CC3=O)ccc12 | Ki [2]: > 18 µM; Ki (Prothrombin): > 4 µM; Ki (Serine protease 1): > 2.9 µM; Ki (Plasminogen): > 7.3 µM; Ki [3]: > 8.7 µM; Ki (Coagulation factor X [5]): 0.042 µM |
| > 1.2 | Nc1ncnc2cc(CN3CCN(Cc4nc5ccc(Cl)cc5s4)CC3=O)ccc12 | – |
| > 1.2 | Nc1ncnc2cc(CN3CCN(Cc4nc5ccc(Cl)cc5o4)CC3=O)ccc12 | – |
